Measured values published in ChEMBL document CHEMBL6083269, “Design, synthesis, in vitro and in vivo trypanosomaticidal efficacy of novel 5-nitroindolylazines” (Eur J Med Chem, 2024).

Experiments:
Leishmania donovani [1] = assay: Antileishmanial activity against Leishmania donovani 9515 (MHOM/IN/95/9151) promastigote incubated for 48 hrs by resazurin dye based plate reader assay; assay type: functional, organism-based
[2] = Cytotoxicity against MDBK cells incubated for 72 hrs by CCK8 assay; assay type: toxicity, cell-based, Bos taurus; conditions: cattle, MDBK cells
[3] = Cytotoxicity against human […]-differentiated THP-1 cells incubated for 72 hrs by resazurin dye based assay; assay type: toxicity, cell-based
[4] = system: Trypanosoma brucei gambiense; assay: Trypanocidal activity against Trypanosoma brucei gambiense IL1922 incubated for 72 hrs by CellTiter-Glo reagent based […] analysis; assay type: functional, organism-based; conditions: IL1922, 72 h
[5] = Cytotoxicity against green monkey Vero cells incubated for 48 hrs by resazurin dye based assay; assay type: toxicity, cell-based; conditions: African green monkey (Chlorocebus sabaeus)
Leishmania donovani [6] = assay: Antileishmanial activity against Leishmania donovani 9515 (MHOM/IN/95/9151) amastigote infected in THP-1 cells assessed as inhibition of parasite growth incubated for 72 hrs by resazurin dye based plate reader assay; assay type: functional, organism-based; conditions: THP-1, 72 h
[7] = system: Trypanosoma brucei rhodesiense; assay: Trypanocidal activity against Trypanosoma brucei rhodesiense IL1501 incubated for 72 hrs by CellTiter-Glo reagent based […] analysis; assay type: functional, organism-based; conditions: IL1501, 72 h
[8] = system: Trypanosoma brucei brucei; assay: Trypanocidal activity against Trypanosoma brucei brucei GUTat3.1 incubated for 72 hrs by CellTiter-Glo reagent based […] analysis; assay type: functional, organism-based; conditions: GUTat3.1, 72 h
Trypanosoma congolense = assay: Trypanocidal activity against Trypanosoma congolense IL3000 incubated for 72 hrs by CellTiter-Glo reagent based […] analysis; assay type: functional, organism-based; conditions: IL3000, 72 h
Trypanosoma equiperdum = assay: Trypanocidal activity against Trypanosoma equiperdum IVM-t1 incubated for 72 hrs by CellTiter-Glo reagent based […] analysis; assay type: functional, organism-based; conditions: IVM-t1, 72 h
Leishmania donovani [9] = assay: Leishmanicidal activity against Leishmania donovani 9515 (MHOM/IN/95/9151) amastigote infected in THP-1 cells incubated for 72 hrs by resazurin dye based plate reader assay; assay type: functional, organism-based; conditions: THP-1, 72 h
Trypanosoma evansi = assay: Trypanocidal activity against Trypanosoma evansi Tansui incubated for 72 hrs by CellTiter-Glo reagent based […] analysis; assay type: functional, organism-based
[10] = Selectivity index, ratio of CC50 for MDBK to IC50 for Trypanosoma congolense IL3000; assay type: toxicity, cell-based; conditions: cattle, MDBK cells; read-out: Ratio CC50/IC50
[11] = Selectivity index, ratio of IC50 for african green monkey Vero cells to IC50 for leishmanicidal activity against Leishmania donovani 9515 (MHOM/IN/95/9151) amastigote; assay type: toxicity, cell-based; conditions: read-out: Ratio IC50
[12] = Selectivity index, ratio of IC50 for human THP-1 cells to IC50 for leishmanicidal activity against Leishmania donovani 9515 (MHOM/IN/95/9151) amastigote; assay type: toxicity, cell-based; conditions: read-out: Ratio IC50
[13] = Selectivity index, ratio of IC50 for african green monkey Vero cells to IC50 for static antileishmanial activity against Leishmania donovani 9515 (MHOM/IN/95/9151) amastigote; assay type: toxicity, cell-based; conditions: read-out: Ratio IC50
[14] = Selectivity index, ratio of IC50 for human THP-1 cells to IC50 for static antileishmanial activity against Leishmania donovani 9515 (MHOM/IN/95/9151) amastigote; assay type: toxicity, cell-based; conditions: read-out: Ratio IC50

Row | Structure (SMILES) | IC50 (Leishmania donovani [1]) [µM] | CC50 at 72 h [2] [µM] | IC50 at 72 h [3] [µM] | IC50 [4] [µM] | IC50 at 48 h [5] [µM] | IC50 (Leishmania donovani [6]) [µM] | IC50 [7] [µM] | IC50 [8] [µM] | IC50 (Trypanosoma congolense) [µM] | IC50 (Trypanosoma equiperdum) [µM] | IC50 (Leishmania donovani [9]) [µM] | IC50 (Trypanosoma evansi) [µM] | selectivity ratio [10] | selectivity ratio [11] | selectivity ratio [12] | selectivity ratio [13] | selectivity ratio [14]
1 | C#CCn1cc(/C=N\N=C\c2ccncc2)c2cc([N+](=O)[O-])ccc21 | > 10 | 267 | 66.4 | > 75.5 | > 100 | > 10 | > 75.5 | > 75.5 | > 75.5 | > 75.5 | > 10 | > 75.5 |  |  |  |  | 
2 | C#CCn1cc(/C=N\N=C\c2nccn2C)c2cc([N+](=O)[O-])ccc21 | > 10 | > 302 | 29.7 | > 75.5 | 54.7 | > 10 | > 75.5 | > 75.5 | 12.8 | > 75.5 | > 10 | > 75.5 | > 23.5 |  |  |  | 
3 | C#CCn1ccc2cc([N+](=O)[O-])ccc21 | > 10 | > 500 | > 100 | > 125 | > 100 | > 10 | > 125 | > 125 | > 125 | > 125 | > 10 | > 125 |  |  |  |  | 
4 | C#CCn1cc(/C=N\N=C\c2cnc[nH]2)c2cc([N+](=O)[O-])ccc21 | > 10 | > 312 | 42.5 | > 78 | 83.2 | > 10 | > 78 | > 78 | 14.8 | > 78 | > 10 | > 78 | > 21 |  |  |  | 
5 | N=C(N)c1ccc(OCCCCCOc2ccc(C(=N)N)cc2)cc1 [PENTAMIDINE] |  |  |  | 0.014 |  |  |  |  | 0.33 | 0.001 |  | 0.001 |  |  |  |  | 
6 | C#CCn1cc(/C=N\N=C\c2cccn2C)c2cc([N+](=O)[O-])ccc21 | > 10 | > 299 |  | > 74.8 |  | > 10 | > 74.8 | > 74.8 | > 74.8 | > 74.8 | > 10 | > 74.8 |  |  |  |  | 
7 | Cc1ccc(C(=O)Nc2ccc(S(=O)(=O)O)c3cc(S(=O)(=O)O)cc(S(=O)(=O)O)c23)cc1NC(=O)c1cccc(NC(=O)Nc2cccc(C(=O)Nc3cc(C(=O)Nc4ccc(S(=O)(=O)O)c5cc(S(=O)(=O)O)cc(S(=O)(=O)O)c45)ccc3C)c2)c1 [SURAMIN] |  |  |  |  |  |  |  |  |  | 0.038 |  |  |  |  |  |  | 
8 | C#CCn1cc(/C=N\N=C\c2ccc([N+](=O)[O-])cc2)c2cc([N+](=O)[O-])ccc21 | > 10 | > 68.2 | 25.7 | > 66.7 | 27.5 | 9.75 | > 66.7 | > 66.7 | 8.84 | > 66.7 | 3.91 | > 66.7 | > 30.1 | 7 | 7 | 3 | 3
9 | CC1CS(=O)(=O)CCN1/N=C/c1ccc([N+](=O)[O-])o1 (stereo not given) [NIFURTIMOX] |  |  |  | 4.58 |  |  |  |  |  |  |  |  |  |  |  |  | 
10 | C#CCn1cc(/C=N\N=C\c2ccccn2)c2cc([N+](=O)[O-])ccc21 | > 10 | > 121 | > 100 | > 75.5 | > 100 | 1.59 | > 75.5 | > 75.5 | > 75.5 | > 75.5 | 3.35 | > 75.5 |  | > 30 | > 30 | > 63 | 63
11 | C#CCn1cc(/C=N\N)c2cc([N+](=O)[O-])ccc21 | > 10 | 341 | 61 | > 103 | 96.8 | > 10 | > 103 | > 103 | > 3.2 | > 103 | > 10 | > 103 |  |  |  |  | 
12 | C#CCn1cc(C=O)c2cc([N+](=O)[O-])ccc21 | > 10 | > 438 | 77 | > 110 | > 100 | > 10 | > 110 | > 110 | > 110 | > 110 | > 10 | > 110 |  |  |  |  | 
13 | O=[N+]([O-])c1ccc2[nH]ccc2c1 | > 10 |  | > 100 |  | > 100 | > 10 |  |  |  |  | > 10 |  |  |  |  |  | 
14 | C#CCn1cc(/C=N\N=C\c2cccnc2)c2cc([N+](=O)[O-])ccc21 | > 10 | 111 | > 100 | > 75.5 | > 100 | 1.32 | > 75.5 | > 75.5 | > 75.5 | > 75.5 | 1.46 | > 75.5 |  | > 68 | > 68 | > 76 | 76
15 | N=C(N)c1ccc(/N=N/Nc2ccc(C(=N)N)cc2)cc1 [DIMINAZENE DIACETURATE] |  |  |  |  |  |  |  |  | 0.109 | 0.011 |  |  |  |  |  |  | 
16 | NCCCC(N)(C(=O)O)C(F)F (stereo not given) [EFLORNITHINE] |  |  |  | 36.7 |  |  | 46 | 38.6 | 16.1 |  |  | 57.2 |  |  |  |  | 
17 | C#CCn1cc(/C=N\N=C/C)c2cc([N+](=O)[O-])ccc21 | > 10 | > 373 | 59.3 | > 93.2 | 89 | > 10 | > 93.2 | > 93.2 | > 93.2 | > 93.2 | > 10 | > 93.2 |  |  |  |  | 
18 | C#CCn1cc(/C=N\N=C/C2CC2)c2cc([N+](=O)[O-])ccc21 | > 10 | > 340 | 51.8 | > 84.9 | 88.4 | > 10 | > 84.9 | > 84.9 | > 84.9 | > 84.9 | > 10 | > 84.9 |  |  |  |  | 
